Measurements from PMC5482845 (Scientific Reports, 2017).
Read-outs that look alike come from different tables or passages of the source. Blank lines part the entries; values can stand above or below the molecule they belong to.

Assays:
SOAT1 [1] = molecular target: T1, SOAT1 (Chlorocebus aethiops, UniProt O77760); test: Interaction of Biotin-Beau-immobilized beads with SOAT1 protein (SDS-PAGE, Western blotting); type: binding, African green monkey; settings: microsomes from SOAT1-CHO cells, band at approximately 53 kDa, none from AC29 cells or control beads
T1 construct: expressed in transfected cells; host or cells: CHO cells (AC29, SOAT-deficient)
T1 sequence (O77760 1-550): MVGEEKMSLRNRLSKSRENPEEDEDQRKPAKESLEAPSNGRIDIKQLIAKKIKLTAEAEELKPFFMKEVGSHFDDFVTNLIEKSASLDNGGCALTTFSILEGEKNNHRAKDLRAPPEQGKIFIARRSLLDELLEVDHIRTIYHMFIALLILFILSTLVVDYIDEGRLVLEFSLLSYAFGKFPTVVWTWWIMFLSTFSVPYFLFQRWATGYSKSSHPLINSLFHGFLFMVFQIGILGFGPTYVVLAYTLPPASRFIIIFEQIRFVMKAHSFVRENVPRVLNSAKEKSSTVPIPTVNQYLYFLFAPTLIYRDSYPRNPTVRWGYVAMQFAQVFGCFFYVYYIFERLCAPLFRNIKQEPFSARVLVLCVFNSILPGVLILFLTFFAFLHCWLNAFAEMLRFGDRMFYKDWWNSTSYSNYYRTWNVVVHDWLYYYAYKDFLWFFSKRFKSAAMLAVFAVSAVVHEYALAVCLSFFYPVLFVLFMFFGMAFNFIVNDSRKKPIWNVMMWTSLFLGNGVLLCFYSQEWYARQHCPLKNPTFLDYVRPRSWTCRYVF
Description: The direct interaction between beauveriolide and SOAT1 was investigated. […] Therefore, Biotin-Beau may be employed as a useful bio-probe to investigate interactions between SOAT1 and beauveriolide. Biotin-Beau was attached to acrylamide-based streptavidin beads, and microsomes prepared from SOAT1-CHO cells and AC29 cells (control, SOAT-deficient CHO cells) were applied to the beads. After washing the beads, bound proteins were recovered with Laemmli sample buffer, separated by SDS-PAGE, and stained with the SOAT1 antibody. […] However, no protein was observed from control AC29 cells (lane (1)) or control beads (no Biotin-Beau-carrying beads) (lane (3)).
The microsomal fraction (500 µg protein in 100 µl buffer A) prepared from AC29 (SOAT-deficient CHO cells) or amgSOAT1-CHO cells using the Potter-type homogenizer as described above were mixed with 0.10% (v/v) Triton X-100 on ice for 10 min. Biotin-Beau (10 nmol)[11] was attached to acrylamide-based streptavidin beads (5.0 nmol)[39]. Microsomes (500 µg) prepared from AC29 cells or SOAT1-CHO cells were added to Biotin-Beau-carrying beads and mixed well at 4.0 °C for 1.0 h with a rotator. The beads were collected by centrifugation at 1,000 rpm at 4.0 °C for 5.0 min and washed three times with PBS (300 µl). […] After separation by SDS-PAGE, SOAT1 protein levels was measured as described above.

SOAT1 [2] = molecular target: T2, SOAT1 (Mus musculus, UniProt Q61263); test: Immunofluorescence staining of SOAT1 and Biotin-Beau in mouse peritoneal macrophages; type: cell-based; settings: Biotin-Beau 9.8 µM
T2 construct: endogenous in cells; host or cells: primary mouse peritoneal macrophages (ICR mice)
T2 sequence (Q61263 1-540): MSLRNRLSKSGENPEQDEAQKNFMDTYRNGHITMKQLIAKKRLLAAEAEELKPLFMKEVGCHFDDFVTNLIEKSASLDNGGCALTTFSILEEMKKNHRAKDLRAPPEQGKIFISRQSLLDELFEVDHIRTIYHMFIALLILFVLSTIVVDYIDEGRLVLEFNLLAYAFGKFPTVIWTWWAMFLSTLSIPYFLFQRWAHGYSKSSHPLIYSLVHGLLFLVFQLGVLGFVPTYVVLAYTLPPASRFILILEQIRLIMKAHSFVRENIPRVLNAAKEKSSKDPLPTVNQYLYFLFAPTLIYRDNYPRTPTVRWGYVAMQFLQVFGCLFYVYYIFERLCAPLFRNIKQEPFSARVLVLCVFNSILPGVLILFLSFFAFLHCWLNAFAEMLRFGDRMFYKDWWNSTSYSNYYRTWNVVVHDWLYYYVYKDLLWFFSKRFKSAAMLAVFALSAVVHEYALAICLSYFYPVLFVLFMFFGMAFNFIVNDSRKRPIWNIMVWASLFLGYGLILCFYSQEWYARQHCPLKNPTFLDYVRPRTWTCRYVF
Description: Supplementary Experiment Methods
Goat anti-rabbit IgG conjugated to fluorescein isothiocyanate (FITC) was purchased from Sigma-Aldrich (St. Louis, MO). Hank’s balanced salt solution was purchased from Nissui Seiyaku (Tokyo, Japan). Streptavidin conjugated to Alexa Fluor 546 was purchased from Thermo Fisher Scientific (Wa l t h a m , M A). […]
Immunofluorescence staining of SOAT1 and Biotin-Beau in mouse peritoneal […]
Mouse peritoneal macrophages from ICR mice (Japan SLC, Inc., Japan) were prepared as described previously1. Briefly, primary mouse peritoneal macrophages (2.0 x 10^5 cells) with liposomes in each well of a tissue culture chamber (LAB-TEK 8-chamber) were incubated at 37°C in 5.0% CO 2. After a 14-h incubation, cells were washed three times with PBS, fixed with 3.7% formalin for 10 min, and permeabilized with PBS containing 0.10% Tr i t o n X-100 at room temperature for 20 min. […]
After a 1-h incubation, cells were stained with the secondary antibody, a goat anti-rabbit IgG conjugated to FITC ([…]) and streptavidin conjugated to Alexa Fluor 546 (1.0 µg/ml) in blocking buffer, for 1.0 h. Cells were washed three times after the incubation and analyzed with confocal laser scanning microscopy (LSM-510 META, Carl Zeiss, Germany). Images were analyzed with a Zeiss LSM Image Browser (Version 3.5.0.376) […]

SOAT1 [3] = molecular target: T1, SOAT1; settings: cited from earlier work
SOAT2 [4] = molecular target: T3, SOAT2 (Chlorocebus aethiops, UniProt O77759); settings: cell-based assay; African green monkey; cited from earlier work
T3 construct: expressed in transfected cells; host or cells: CHO cells (AC29, SOAT-deficient)
T3 sequence (O77759 1-526): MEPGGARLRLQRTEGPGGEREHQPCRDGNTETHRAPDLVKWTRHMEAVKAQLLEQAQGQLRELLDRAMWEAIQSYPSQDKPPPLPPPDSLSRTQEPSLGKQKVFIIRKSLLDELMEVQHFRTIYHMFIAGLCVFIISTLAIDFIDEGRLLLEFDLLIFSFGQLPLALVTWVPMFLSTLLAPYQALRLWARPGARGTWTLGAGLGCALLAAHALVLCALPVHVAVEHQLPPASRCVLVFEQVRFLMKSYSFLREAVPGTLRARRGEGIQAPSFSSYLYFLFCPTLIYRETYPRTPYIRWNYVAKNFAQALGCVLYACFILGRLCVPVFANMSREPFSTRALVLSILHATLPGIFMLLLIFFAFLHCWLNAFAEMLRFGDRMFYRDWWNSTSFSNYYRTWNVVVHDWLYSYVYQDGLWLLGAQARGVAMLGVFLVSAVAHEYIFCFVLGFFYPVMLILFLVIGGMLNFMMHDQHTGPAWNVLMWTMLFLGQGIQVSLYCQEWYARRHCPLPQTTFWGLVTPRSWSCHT

SOAT1 [5] = molecular target: T1, SOAT1; settings: enzyme-based assay; African green monkey; cited from earlier work
SOAT2 [6] = molecular target: T3, SOAT2; settings: enzyme-based assay; African green monkey; cited from earlier work
SOAT1 and SOAT2 = test system: SOAT1 and SOAT2; set-up: method as in PMID 14617738, PMID 17390588, PMID 16820149, PMID 16730694, PMID 16626720; settings: cited from earlier work
SOAT2 [7] = molecular target: T4, SOAT2 (Homo sapiens, UniProt O75908); test: [14C]CE synthesis in intact hSOAT2-CHO cells (cell-based assay)
T4 construct: expressed in transfected cells; host or cells: CHO cells (AC29, SOAT-deficient)
T4 sequence (O75908 1-522): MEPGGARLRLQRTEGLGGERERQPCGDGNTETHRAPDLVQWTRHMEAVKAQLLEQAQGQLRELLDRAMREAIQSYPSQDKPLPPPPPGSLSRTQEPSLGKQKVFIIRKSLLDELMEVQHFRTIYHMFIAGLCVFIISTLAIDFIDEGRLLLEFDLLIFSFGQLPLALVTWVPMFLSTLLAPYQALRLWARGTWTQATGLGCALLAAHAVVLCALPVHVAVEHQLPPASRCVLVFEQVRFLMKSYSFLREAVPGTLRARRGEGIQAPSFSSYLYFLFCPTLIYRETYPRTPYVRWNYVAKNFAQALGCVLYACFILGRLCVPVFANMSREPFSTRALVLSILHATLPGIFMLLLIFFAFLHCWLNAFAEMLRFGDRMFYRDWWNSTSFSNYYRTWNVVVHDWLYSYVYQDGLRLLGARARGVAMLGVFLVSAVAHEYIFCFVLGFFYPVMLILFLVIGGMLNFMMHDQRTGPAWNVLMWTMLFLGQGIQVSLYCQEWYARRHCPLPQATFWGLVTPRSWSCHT
Protocol: CHO cells (AC29 cells, SOAT-deficient cells)[37] expressing the SOAT1 or SOAT2 gene from African Green monkeys and humans were cultured by the method described previously.
The assay for the synthesis of [^14C]cholesteryl ester (CE) from [^14C]oleic acid in intact SOAT1- or SOAT2-CHO cells was performed according to our established method.

SOAT2 [8] = molecular target: T4, SOAT2; test: Enzyme-based SOAT assay, microsomes from hSOAT2-CHO cells (Potter-type homogenizer); type: biochemical
Protocol: An enzyme source from SOAT1-/SOAT2-CHO cells using a Potter-type homogenizer was prepared using our established method[18]. Briefly, SOAT1 or SOAT2-CHO cells (2.0 × 10^8 cells) were homogenized in 5 ml cold buffered sucrose solution (pH 7.2, 100 mM sucrose, 50 mM KCl, 40 mM KH2PO4, and 30 mM EDTA, hereafter referred to as Buffer A) including protease inhibitors (Complete mini (Roche)) in the Potter-type homogenizer. The microsomal fraction was pelleted by centrifugation at 100,000 × g at 4.0 °C for 1.0 h (TLA110, Beckman Coulter), resuspended in the same buffer at a concentration of 5.0 mg protein/ml, and stored at −80 °C until used.
SOAT1 and SOAT2 activities were measured using fractionation prepared as described above as an enzyme source[18]. Briefly, an assay mixture was made containing 500 µg BSA (fatty acid free) and [1-^14C]oleoyl-CoA (20 µM, 3.7 kBq). A test sample (5.0 µl in methanol solution) and microsomes or the ER fractionation of SOAT1- and SOAT2-CHO cells in a total volume of 200 µl Buffer A was incubated at 37 °C. The SOAT reaction was started by adding [1-^14C]oleoyl-CoA. After a 5-min incubation, the reaction was stopped by adding chloroform: methanol (2:1, 1.2 ml). […] After the organic solvent was removed by evaporation, lipids were separated on a TLC plate and the radioactivity of [^14C]CE was measured by our established method[18].

atherosclerotic lesions = test system: atherosclerotic lesions; set-up: method as in PMID 17803269, PMID 14718664; settings: orally active; apolipoprotein E knockout mice and low density lipoprotein receptor knockout mice; cited from earlier work

binding to SOAT1 protein (SOAT1 [1]): bound to the SOAT1 protein
binding to SOAT1 protein (SOAT1 [1]; listed as Biotin-Beau): directly binds to the SOAT1 protein
Compound: CCCC[C@H](C)[C@@H]1CC(=O)N[C@@H](C(c2ccccc2)c2ccccc2)C(=O)N[C@H](Cn2cc(CNC(=O)CCCCNC(=O)CCCC[C@@H]3SC[C@@H]4NC(=O)N[C@@H]43)nn2)C(=O)N[C@H](C2CCCCC2)C(=O)O1 [Biotin-labeled beauveriolide]
cellular localization relative to SOAT1 (SOAT1 [2]): colocalized with a restricted area of SOAT1 protein distribution
effect on CE synthesis (SOAT1 [3]; cell-based assay using SOAT1-/SOAT2-CHO cells): no effect on CE synthesis
IC50 (SOAT1 [3]; cell-based assay, African green monkey): > 10 µM
IC50 (SOAT2 [4]): > 10 µM
IC50 (SOAT1 [5]): 0.6 µM
SI (type) (SOAT1 [5]): SOAT1 (SOAT1-selective type, SI < −1.00)
IC50 (SOAT2 [6]): 8 µM

Compound: CCCCCCCCN1CCc2c(C)c(CC(=O)O)c(C)c(NC(=O)C(C)(C)C)c21 [pactimibe]
group of SOAT inhibitor from SI values (SOAT1 and SOAT2): dual inhibitors (dual inhibitors (−1.00 ≤ SI ≤+1.00) inhibiting SOAT1 and SOAT2)

Compound: CCCC[C@H](C)[C@@H]1CC(=O)N[C@@H](Cc2ccccc2)C(=O)N[C@@H](C)C(=O)N[C@H](CC(C)C)C(=O)O1 [Beauveriolide I]
IC50 (SOAT2 [7]): > 20 µM
IC50 (SOAT2 [8]): 1100 nM
IC50 (SOAT2 [6]): 1.9 µM

Compound: CC(C)c1cc(C(C)C)c(CC(=O)NS(=O)(=O)Oc2c(C(C)C)cccc2C(C)C)c(C(C)C)c1 [avasimibe]
group of SOAT inhibitor from SI values (SOAT1 and SOAT2): dual inhibitors (dual inhibitors (−1.00 ≤ SI ≤+1.00) inhibiting SOAT1 and SOAT2)

Compound: CSc1cc(C)nc(SC)c1NC(=O)CN1CCN(CCSc2nc3ccccc3[nH]2)CC1 [K-604]
group of SOAT inhibitor from SI values (SOAT1 and SOAT2): SOAT1-selective inhibitors (SOAT1-selective inhibitors (SI, <−1.00))

Compound: CCCC[C@H](C)[C@@H]1CC(=O)N[C@@H](Cc2ccccc2)C(=O)N[C@@H](C)C(=O)N[C@H]([C@@H](C)CC)C(=O)O1 [Beauveriolide III]
effect on atherosclerotic lesions (atherosclerotic lesions): reducing atherosclerotic lesions in the aortae and hearts
